Reference: ChEMBL document CHEMBL3217539, “Design, synthesis and biological evaluation of new molecules inhibiting epidermal growth factor receptor threonine790 methionine790 mutant” (Medchemcomm, 2012)

biological target: Epidermal growth factor receptor (Homo sapiens, UniProt P00533); test: Inhibition of wild type EGFR kinase (unknown origin) after 1.5 hrs by FRET-based Z'-Lyte assay; details: not given
Sequence (P00533 whole entry): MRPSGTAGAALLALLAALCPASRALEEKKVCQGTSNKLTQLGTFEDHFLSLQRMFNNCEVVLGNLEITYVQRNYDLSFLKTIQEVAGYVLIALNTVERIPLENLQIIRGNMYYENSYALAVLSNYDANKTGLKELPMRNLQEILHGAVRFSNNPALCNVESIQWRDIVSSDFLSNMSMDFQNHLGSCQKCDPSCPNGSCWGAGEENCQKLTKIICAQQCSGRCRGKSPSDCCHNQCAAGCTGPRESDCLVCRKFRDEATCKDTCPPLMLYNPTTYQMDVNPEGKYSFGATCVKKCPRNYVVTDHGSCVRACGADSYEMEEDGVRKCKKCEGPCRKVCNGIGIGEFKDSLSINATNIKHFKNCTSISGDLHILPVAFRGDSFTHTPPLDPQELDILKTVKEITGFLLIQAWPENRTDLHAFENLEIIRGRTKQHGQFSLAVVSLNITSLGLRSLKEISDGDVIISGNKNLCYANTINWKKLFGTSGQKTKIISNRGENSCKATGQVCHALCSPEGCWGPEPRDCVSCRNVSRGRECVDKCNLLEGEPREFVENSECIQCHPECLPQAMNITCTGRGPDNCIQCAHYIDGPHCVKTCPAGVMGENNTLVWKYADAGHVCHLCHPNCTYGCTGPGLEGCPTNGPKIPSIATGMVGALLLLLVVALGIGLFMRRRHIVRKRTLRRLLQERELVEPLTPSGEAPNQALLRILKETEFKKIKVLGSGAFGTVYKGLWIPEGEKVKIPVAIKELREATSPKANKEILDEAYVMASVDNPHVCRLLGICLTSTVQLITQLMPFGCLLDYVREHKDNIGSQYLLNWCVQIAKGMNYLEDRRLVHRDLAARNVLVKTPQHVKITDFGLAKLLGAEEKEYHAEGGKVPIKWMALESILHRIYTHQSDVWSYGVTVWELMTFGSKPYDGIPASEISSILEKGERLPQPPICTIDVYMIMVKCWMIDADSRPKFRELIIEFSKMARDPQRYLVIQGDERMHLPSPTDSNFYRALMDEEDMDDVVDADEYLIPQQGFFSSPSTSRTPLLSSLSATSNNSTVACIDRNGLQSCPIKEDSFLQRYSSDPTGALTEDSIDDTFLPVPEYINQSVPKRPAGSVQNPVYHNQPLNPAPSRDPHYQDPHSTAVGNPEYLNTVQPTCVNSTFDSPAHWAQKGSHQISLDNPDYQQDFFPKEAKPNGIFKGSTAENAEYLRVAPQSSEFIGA

SMILES | IC50
C=CC(=O)Nc1cccc(N2C(=O)CN(Cc3ccccc3)C(=O)c3cnc(Nc4ccc(N5CCN(C)CC5)cc4OC)nc32)c1 | 0.00626 µM
C=CC(=O)Nc1cccc(N2C(=O)CN(c3ccccc3)C(=O)c3cnc(Nc4ccc(N5CCN(C)CC5)cc4OC)nc32)c1 | 0.00699 µM
C=CC(=O)Nc1cccc(N2C(=O)C(C)N(C)C(=O)c3cnc(Nc4ccc(N5CCN(C)CC5)cc4OC)nc32)c1 (stereo unspecified) | 0.0221 µM
C=CC(=O)Nc1cccc(N2C(=O)C(c3ccccc3)N(C)C(=O)c3cnc(Nc4ccc(N5CCN(C)CC5)cc4OC)nc32)c1 (stereo unspecified) | 0.0772 µM
C=CC(=O)Nc1cccc(N2C(=O)C3CCCCN3C(=O)c3cnc(Nc4ccc(N5CCN(C)CC5)cc4OC)nc32)c1 (stereo unspecified) | 0.00245 µM
C=CC(=O)Nc1cccc(N2C(=O)C(C(C)C)N(C)C(=O)c3cnc(Nc4ccc(N5CCN(C)CC5)cc4OC)nc32)c1 (stereo unspecified) | 0.0248 µM
C=CC(=O)Nc1cccc(N2C(=O)C3CCCN3C(=O)c3cnc(Nc4ccc(N5CCN(C)CC5)cc4OC)nc32)c1 (stereo unspecified) | > 1 µM

biological target: Epidermal growth factor receptor (Homo sapiens, UniProt P00533, T790M); test: Inhibition of EGFR kinase T790M mutant (unknown origin) after 1.5 hrs by FRET-based Z'-Lyte assay; type: protein assay; details: not given
Sequence (P00533 25-1210 T790M limits assumed): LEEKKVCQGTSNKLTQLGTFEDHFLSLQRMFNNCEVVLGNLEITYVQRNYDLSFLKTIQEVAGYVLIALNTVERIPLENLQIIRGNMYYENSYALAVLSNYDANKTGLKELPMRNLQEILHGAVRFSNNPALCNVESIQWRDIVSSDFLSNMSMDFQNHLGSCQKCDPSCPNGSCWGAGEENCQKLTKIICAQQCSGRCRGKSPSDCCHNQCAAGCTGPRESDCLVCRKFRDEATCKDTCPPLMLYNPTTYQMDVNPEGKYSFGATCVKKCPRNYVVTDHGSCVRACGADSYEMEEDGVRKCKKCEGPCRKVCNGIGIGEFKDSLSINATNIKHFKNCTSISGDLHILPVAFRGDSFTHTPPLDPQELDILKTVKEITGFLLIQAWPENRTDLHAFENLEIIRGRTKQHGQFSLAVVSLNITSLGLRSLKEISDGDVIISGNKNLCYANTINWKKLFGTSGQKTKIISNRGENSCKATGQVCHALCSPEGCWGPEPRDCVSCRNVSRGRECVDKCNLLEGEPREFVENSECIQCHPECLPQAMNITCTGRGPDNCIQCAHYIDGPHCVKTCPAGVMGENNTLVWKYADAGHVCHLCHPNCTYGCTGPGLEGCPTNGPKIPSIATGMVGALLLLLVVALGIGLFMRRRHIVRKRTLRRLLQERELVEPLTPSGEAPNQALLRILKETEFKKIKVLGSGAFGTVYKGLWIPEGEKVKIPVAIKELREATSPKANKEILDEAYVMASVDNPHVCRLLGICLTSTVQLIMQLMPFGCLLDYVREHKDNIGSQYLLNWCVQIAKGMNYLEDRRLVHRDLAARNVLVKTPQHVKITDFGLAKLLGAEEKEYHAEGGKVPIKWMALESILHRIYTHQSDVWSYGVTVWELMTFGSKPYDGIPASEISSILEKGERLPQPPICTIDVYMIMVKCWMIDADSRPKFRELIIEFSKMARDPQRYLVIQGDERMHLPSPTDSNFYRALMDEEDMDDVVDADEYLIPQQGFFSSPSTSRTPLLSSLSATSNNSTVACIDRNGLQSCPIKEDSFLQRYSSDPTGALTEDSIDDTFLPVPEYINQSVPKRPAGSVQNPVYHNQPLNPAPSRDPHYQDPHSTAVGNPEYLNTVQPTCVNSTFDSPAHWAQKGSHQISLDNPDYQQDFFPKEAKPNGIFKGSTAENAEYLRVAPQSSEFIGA

SMILES | IC50
C=CC(=O)Nc1cccc(N2C(=O)CN(Cc3ccccc3)C(=O)c3cnc(Nc4ccc(N5CCN(C)CC5)cc4OC)nc32)c1 | 0.0843 µM
C=CC(=O)Nc1cccc(N2C(=O)CN(c3ccccc3)C(=O)c3cnc(Nc4ccc(N5CCN(C)CC5)cc4OC)nc32)c1 | 0.221 µM
C=CC(=O)Nc1cccc(N2C(=O)C(C)N(C)C(=O)c3cnc(Nc4ccc(N5CCN(C)CC5)cc4OC)nc32)c1 (stereo unspecified) | 0.122 µM
C=CC(=O)Nc1cccc(N2C(=O)C(c3ccccc3)N(C)C(=O)c3cnc(Nc4ccc(N5CCN(C)CC5)cc4OC)nc32)c1 (stereo unspecified) | 0.778 µM
C=CC(=O)Nc1cccc(N2C(=O)C3CCCCN3C(=O)c3cnc(Nc4ccc(N5CCN(C)CC5)cc4OC)nc32)c1 (stereo unspecified) | 0.115 µM
C=CC(=O)Nc1cccc(N2C(=O)C(C(C)C)N(C)C(=O)c3cnc(Nc4ccc(N5CCN(C)CC5)cc4OC)nc32)c1 (stereo unspecified) | 0.044 µM
C=CC(=O)Nc1cccc(N2C(=O)C3CCCN3C(=O)c3cnc(Nc4ccc(N5CCN(C)CC5)cc4OC)nc32)c1 (stereo unspecified) | > 1 µM

tested on: NCI-H1975; test: cells; type: functional, cell-based; details: Homo sapiens, NCI-H1975, 72 h

SMILES | IC50
C=CC(=O)Nc1cccc(N2C(=O)CN(Cc3ccccc3)C(=O)c3cnc(Nc4ccc(N5CCN(C)CC5)cc4OC)nc32)c1 | 2.59 µM
C=CC(=O)Nc1cccc(N2C(=O)CN(c3ccccc3)C(=O)c3cnc(Nc4ccc(N5CCN(C)CC5)cc4OC)nc32)c1 | 9.19 µM
C=CC(=O)Nc1cccc(N2C(=O)C(C)N(C)C(=O)c3cnc(Nc4ccc(N5CCN(C)CC5)cc4OC)nc32)c1 (stereo unspecified) | 0.92 µM
C=CC(=O)Nc1cccc(N2C(=O)C(c3ccccc3)N(C)C(=O)c3cnc(Nc4ccc(N5CCN(C)CC5)cc4OC)nc32)c1 (stereo unspecified) | 5.9 µM
C=CC(=O)Nc1cccc(N2C(=O)C3CCCCN3C(=O)c3cnc(Nc4ccc(N5CCN(C)CC5)cc4OC)nc32)c1 (stereo unspecified) | 0.99 µM
C=CC(=O)Nc1cccc(N2C(=O)C(C(C)C)N(C)C(=O)c3cnc(Nc4ccc(N5CCN(C)CC5)cc4OC)nc32)c1 (stereo unspecified) | 0.65 µM
C=CC(=O)Nc1cccc(N2C(=O)C3CCCN3C(=O)c3cnc(Nc4ccc(N5CCN(C)CC5)cc4OC)nc32)c1 (stereo unspecified) | 31.4 µM

tested on: not listed separately; test: Cytotoxicity against human HCC827 cells expressing EGFR kinase E746 to A750 deletion mutant after 72 hrs by MTS assay; type: functional, cell-based; details: HCC827, 72 h

SMILES | IC50
C=CC(=O)Nc1cccc(N2C(=O)CN(Cc3ccccc3)C(=O)c3cnc(Nc4ccc(N5CCN(C)CC5)cc4OC)nc32)c1 | 0.087 µM
C=CC(=O)Nc1cccc(N2C(=O)CN(c3ccccc3)C(=O)c3cnc(Nc4ccc(N5CCN(C)CC5)cc4OC)nc32)c1 | 0.14 µM
C=CC(=O)Nc1cccc(N2C(=O)C(C)N(C)C(=O)c3cnc(Nc4ccc(N5CCN(C)CC5)cc4OC)nc32)c1 (stereo unspecified) | 0.13 µM
C=CC(=O)Nc1cccc(N2C(=O)C(c3ccccc3)N(C)C(=O)c3cnc(Nc4ccc(N5CCN(C)CC5)cc4OC)nc32)c1 (stereo unspecified) | 3.82 µM
C=CC(=O)Nc1cccc(N2C(=O)C3CCCCN3C(=O)c3cnc(Nc4ccc(N5CCN(C)CC5)cc4OC)nc32)c1 (stereo unspecified) | 0.068 µM
C=CC(=O)Nc1cccc(N2C(=O)C(C(C)C)N(C)C(=O)c3cnc(Nc4ccc(N5CCN(C)CC5)cc4OC)nc32)c1 (stereo unspecified) | 0.069 µM
C=CC(=O)Nc1cccc(N2C(=O)C3CCCN3C(=O)c3cnc(Nc4ccc(N5CCN(C)CC5)cc4OC)nc32)c1 (stereo unspecified) | 6.9 µM

tested on: not listed separately; test: Cytotoxicity against human HL7702 cells expressing wild type EGFR after 72 hrs by MTS assay; type: ADME, cell-based; details: L02, 72 h

SMILES | IC50
C=CC(=O)Nc1cccc(N2C(=O)CN(Cc3ccccc3)C(=O)c3cnc(Nc4ccc(N5CCN(C)CC5)cc4OC)nc32)c1 | 17.5 µM
C=CC(=O)Nc1cccc(N2C(=O)CN(c3ccccc3)C(=O)c3cnc(Nc4ccc(N5CCN(C)CC5)cc4OC)nc32)c1 | 1.71 µM
C=CC(=O)Nc1cccc(N2C(=O)C(C)N(C)C(=O)c3cnc(Nc4ccc(N5CCN(C)CC5)cc4OC)nc32)c1 (stereo unspecified) | 49.1 µM
C=CC(=O)Nc1cccc(N2C(=O)C(c3ccccc3)N(C)C(=O)c3cnc(Nc4ccc(N5CCN(C)CC5)cc4OC)nc32)c1 (stereo unspecified) | 14.3 µM
C=CC(=O)Nc1cccc(N2C(=O)C3CCCCN3C(=O)c3cnc(Nc4ccc(N5CCN(C)CC5)cc4OC)nc32)c1 (stereo unspecified) | 23 µM
C=CC(=O)Nc1cccc(N2C(=O)C(C(C)C)N(C)C(=O)c3cnc(Nc4ccc(N5CCN(C)CC5)cc4OC)nc32)c1 (stereo unspecified) | 28.2 µM
C=CC(=O)Nc1cccc(N2C(=O)C3CCCN3C(=O)c3cnc(Nc4ccc(N5CCN(C)CC5)cc4OC)nc32)c1 (stereo unspecified) | 16.1 µM

biological target: Epidermal growth factor receptor (Homo sapiens, UniProt P00533, L858R/T790M); test: Inhibition of EGFR kinase L858R/T790M double mutant (unknown origin) after 1.5 hrs by FRET-based Z'-Lyte assay; type: protein assay; details: not given
Sequence (P00533 25-1210 T790M/L858R limits assumed): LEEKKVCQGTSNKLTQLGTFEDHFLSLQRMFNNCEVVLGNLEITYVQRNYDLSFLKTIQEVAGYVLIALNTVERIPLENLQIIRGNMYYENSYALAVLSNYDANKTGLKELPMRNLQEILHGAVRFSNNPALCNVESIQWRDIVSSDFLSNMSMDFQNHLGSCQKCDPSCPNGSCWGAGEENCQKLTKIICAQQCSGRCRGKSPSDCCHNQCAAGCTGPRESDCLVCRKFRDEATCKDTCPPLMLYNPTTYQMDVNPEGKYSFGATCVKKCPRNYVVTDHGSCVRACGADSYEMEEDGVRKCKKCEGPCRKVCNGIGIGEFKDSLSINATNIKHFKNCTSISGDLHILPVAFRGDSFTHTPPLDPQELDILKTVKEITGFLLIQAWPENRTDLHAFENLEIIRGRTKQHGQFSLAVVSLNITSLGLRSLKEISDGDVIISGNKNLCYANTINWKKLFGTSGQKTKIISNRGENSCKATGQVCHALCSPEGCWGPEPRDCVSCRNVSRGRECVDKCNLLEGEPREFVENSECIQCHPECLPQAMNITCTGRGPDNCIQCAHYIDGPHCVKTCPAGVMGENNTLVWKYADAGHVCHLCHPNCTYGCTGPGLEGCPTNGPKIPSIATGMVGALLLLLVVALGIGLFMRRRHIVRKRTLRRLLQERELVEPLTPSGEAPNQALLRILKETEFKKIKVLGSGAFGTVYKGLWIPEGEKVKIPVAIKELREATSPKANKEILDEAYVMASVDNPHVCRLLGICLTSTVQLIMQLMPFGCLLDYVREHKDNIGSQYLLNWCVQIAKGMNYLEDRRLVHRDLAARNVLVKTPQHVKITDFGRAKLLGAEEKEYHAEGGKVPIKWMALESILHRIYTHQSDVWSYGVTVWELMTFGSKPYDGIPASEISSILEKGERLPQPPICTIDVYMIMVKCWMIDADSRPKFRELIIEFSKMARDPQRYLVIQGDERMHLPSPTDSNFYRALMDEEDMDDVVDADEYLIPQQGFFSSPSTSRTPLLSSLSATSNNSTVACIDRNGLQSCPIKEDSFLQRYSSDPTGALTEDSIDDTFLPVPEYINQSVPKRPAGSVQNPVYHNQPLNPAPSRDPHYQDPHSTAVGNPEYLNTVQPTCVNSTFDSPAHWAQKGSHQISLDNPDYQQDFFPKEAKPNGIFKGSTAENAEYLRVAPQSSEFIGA

SMILES | IC50
C=CC(=O)Nc1cccc(N2C(=O)CN(Cc3ccccc3)C(=O)c3cnc(Nc4ccc(N5CCN(C)CC5)cc4OC)nc32)c1 | 0.0328 µM
C=CC(=O)Nc1cccc(N2C(=O)CN(c3ccccc3)C(=O)c3cnc(Nc4ccc(N5CCN(C)CC5)cc4OC)nc32)c1 | 0.194 µM
C=CC(=O)Nc1cccc(N2C(=O)C(C)N(C)C(=O)c3cnc(Nc4ccc(N5CCN(C)CC5)cc4OC)nc32)c1 (stereo unspecified) | 0.0509 µM
C=CC(=O)Nc1cccc(N2C(=O)C(c3ccccc3)N(C)C(=O)c3cnc(Nc4ccc(N5CCN(C)CC5)cc4OC)nc32)c1 (stereo unspecified) | > 1 µM
C=CC(=O)Nc1cccc(N2C(=O)C3CCCCN3C(=O)c3cnc(Nc4ccc(N5CCN(C)CC5)cc4OC)nc32)c1 (stereo unspecified) | 0.0407 µM
C=CC(=O)Nc1cccc(N2C(=O)C(C(C)C)N(C)C(=O)c3cnc(Nc4ccc(N5CCN(C)CC5)cc4OC)nc32)c1 (stereo unspecified) | 0.0248 µM
C=CC(=O)Nc1cccc(N2C(=O)C3CCCN3C(=O)c3cnc(Nc4ccc(N5CCN(C)CC5)cc4OC)nc32)c1 (stereo unspecified) | > 1 µM

biological target: Epidermal growth factor receptor (Homo sapiens, UniProt P00533, L861Q); test: Inhibition of EGFR kinase L861Q mutant (unknown origin) after 1.5 hrs by FRET-based Z'-Lyte assay; type: protein assay; details: not given

SMILES | IC50
C=CC(=O)Nc1cccc(N2C(=O)CN(Cc3ccccc3)C(=O)c3cnc(Nc4ccc(N5CCN(C)CC5)cc4OC)nc32)c1 | 0.0084 µM
C=CC(=O)Nc1cccc(N2C(=O)CN(c3ccccc3)C(=O)c3cnc(Nc4ccc(N5CCN(C)CC5)cc4OC)nc32)c1 | 0.00686 µM
C=CC(=O)Nc1cccc(N2C(=O)C(C)N(C)C(=O)c3cnc(Nc4ccc(N5CCN(C)CC5)cc4OC)nc32)c1 (stereo unspecified) | 0.00602 µM
C=CC(=O)Nc1cccc(N2C(=O)C(c3ccccc3)N(C)C(=O)c3cnc(Nc4ccc(N5CCN(C)CC5)cc4OC)nc32)c1 (stereo unspecified) | 0.0771 µM
C=CC(=O)Nc1cccc(N2C(=O)C3CCCCN3C(=O)c3cnc(Nc4ccc(N5CCN(C)CC5)cc4OC)nc32)c1 (stereo unspecified) | 0.00274 µM
C=CC(=O)Nc1cccc(N2C(=O)C(C(C)C)N(C)C(=O)c3cnc(Nc4ccc(N5CCN(C)CC5)cc4OC)nc32)c1 (stereo unspecified) | 0.0241 µM
C=CC(=O)Nc1cccc(N2C(=O)C3CCCN3C(=O)c3cnc(Nc4ccc(N5CCN(C)CC5)cc4OC)nc32)c1 (stereo unspecified) | > 1 µM

biological target: Epidermal growth factor receptor (Homo sapiens, UniProt P00533, L858R); test: Inhibition of EGFR kinase L858R mutant (unknown origin) after 1.5 hrs by FRET-based Z'-Lyte assay; type: protein assay; details: not given
Sequence (P00533 25-1210 L858R limits assumed): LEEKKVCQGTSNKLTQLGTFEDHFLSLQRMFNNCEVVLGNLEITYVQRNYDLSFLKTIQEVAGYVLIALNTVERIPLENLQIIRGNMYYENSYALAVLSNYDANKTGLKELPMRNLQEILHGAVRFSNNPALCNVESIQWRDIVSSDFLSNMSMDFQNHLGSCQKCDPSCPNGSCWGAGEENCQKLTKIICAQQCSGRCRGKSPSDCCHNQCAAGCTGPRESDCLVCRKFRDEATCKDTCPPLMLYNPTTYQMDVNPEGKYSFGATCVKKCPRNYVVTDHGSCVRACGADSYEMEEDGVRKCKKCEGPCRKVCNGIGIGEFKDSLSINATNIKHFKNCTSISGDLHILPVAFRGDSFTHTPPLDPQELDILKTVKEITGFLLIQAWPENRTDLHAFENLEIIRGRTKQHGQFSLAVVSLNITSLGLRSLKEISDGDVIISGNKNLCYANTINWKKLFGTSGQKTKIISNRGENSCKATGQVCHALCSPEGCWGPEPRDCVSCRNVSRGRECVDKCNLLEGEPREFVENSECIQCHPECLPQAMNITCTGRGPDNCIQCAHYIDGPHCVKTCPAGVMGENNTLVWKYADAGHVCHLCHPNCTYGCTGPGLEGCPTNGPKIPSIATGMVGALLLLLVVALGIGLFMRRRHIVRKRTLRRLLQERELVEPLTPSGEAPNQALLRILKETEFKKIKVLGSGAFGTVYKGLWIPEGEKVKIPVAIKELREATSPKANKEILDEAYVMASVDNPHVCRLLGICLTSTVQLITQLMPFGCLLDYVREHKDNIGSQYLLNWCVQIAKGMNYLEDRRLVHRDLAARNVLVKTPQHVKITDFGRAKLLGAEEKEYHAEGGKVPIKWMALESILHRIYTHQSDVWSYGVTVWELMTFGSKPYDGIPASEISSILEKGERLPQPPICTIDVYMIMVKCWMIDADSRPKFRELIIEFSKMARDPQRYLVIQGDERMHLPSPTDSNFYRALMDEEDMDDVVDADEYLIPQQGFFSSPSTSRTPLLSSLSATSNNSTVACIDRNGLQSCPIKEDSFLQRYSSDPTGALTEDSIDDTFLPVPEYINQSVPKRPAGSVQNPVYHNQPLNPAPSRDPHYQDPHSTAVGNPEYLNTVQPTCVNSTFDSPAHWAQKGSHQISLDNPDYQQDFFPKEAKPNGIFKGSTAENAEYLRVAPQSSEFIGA

SMILES | IC50
C=CC(=O)Nc1cccc(N2C(=O)CN(Cc3ccccc3)C(=O)c3cnc(Nc4ccc(N5CCN(C)CC5)cc4OC)nc32)c1 | 0.00912 µM
C=CC(=O)Nc1cccc(N2C(=O)CN(c3ccccc3)C(=O)c3cnc(Nc4ccc(N5CCN(C)CC5)cc4OC)nc32)c1 | 0.0307 µM
C=CC(=O)Nc1cccc(N2C(=O)C(C)N(C)C(=O)c3cnc(Nc4ccc(N5CCN(C)CC5)cc4OC)nc32)c1 (stereo unspecified) | 0.0416 µM
C=CC(=O)Nc1cccc(N2C(=O)C(c3ccccc3)N(C)C(=O)c3cnc(Nc4ccc(N5CCN(C)CC5)cc4OC)nc32)c1 (stereo unspecified) | 0.174 µM
C=CC(=O)Nc1cccc(N2C(=O)C3CCCCN3C(=O)c3cnc(Nc4ccc(N5CCN(C)CC5)cc4OC)nc32)c1 (stereo unspecified) | 0.0043 µM
C=CC(=O)Nc1cccc(N2C(=O)C(C(C)C)N(C)C(=O)c3cnc(Nc4ccc(N5CCN(C)CC5)cc4OC)nc32)c1 (stereo unspecified) | 0.0565 µM
C=CC(=O)Nc1cccc(N2C(=O)C3CCCN3C(=O)c3cnc(Nc4ccc(N5CCN(C)CC5)cc4OC)nc32)c1 (stereo unspecified) | > 1 µM
